Data as given in PubChem BioAssay AID1963982 (Molecular Pharmacology Branch, DTP, NCI, 2024).
“And” between values parts separate entries of the source, which are not always exact repeats. Identical values can stand only once.

System: 313798-341-R-J2-PDC spheroids, viability
Experiment: Anticancer human tumor 313798-341-R-J2-PDC patient-derived cervical squamous cell carcinoma cell line growth inhibition [PI3K]
Settings: spheroids with HUVEC and MSC; for viability, T/C: stronger effect = lower value
Text: Combinatorial screen of targeted agents with the PI3K inhibitors inavolisib, alpelisib, duvelisib, and copanlisib in multi-cell type tumor spheroids
A high-throughput screen of multi-cell type tumor spheroids was designed to identify active combinations of targeted small molecules and PI3K pathway inhibitors. Complex spheroids include a stromal component modeled by human endothelial cells (HUVEC) and fibroblasts modeled by human mesenchymal stem cells (MSCs). The concentration ranges selected for each drug and investigational agent were based upon clinically achievable concentrations if the clinical Cmax of the agent was known.
Compounds. The drugs and investigational agents: inavolisib (NSC800729), alpelisib (NSC765974), duvelisib (NSC772469), copanlisib (NSC816437), ipatasertib (NSC767898), afuresertib (NSC778305), talazoparib (NSC767125), sapanisertib (NSC764658), selumetinib (NSC741078), tovorafenib (DAY101, NSC766906), vemurafenib (NSC761431), ravoxertinib (NSC781343), sotorasib (NSC818433), MRTX1133 (NSC 836407), abemaciclib (NSC 768073), palbociclib (NSC758247), venetoclax (NSC 766270), SY5609 (NSC837396), enzalutamide (NSC755605), and darolutamide (NSC825331), were obtained from the National Cancer Institute (NCI) Developmental Therapeutics Program Chemical Repository. The FDA-approved anticancer drug set is available from the NCI Developmental Therapeutics Program. […] The stock solutions were prepared in dimethyl sulfoxide (DMSO, Sigma-Aldrich, St. Louis, MO, cat. D2650) at 800-fold the tested concentration and stored at -70 degrees C prior to their use. All drugs and investigational agents were tested over a range starting from a high concentration at or near the clinical Cmax and decreasing in half-log increments. If the clinical Cmax for an agent had not been determined, the highest concentration tested was 10 microM.
Cell Culture. All cells were maintained in an incubator at 37 degrees C and 5% CO2 with 95% humidity. The PDC lines were cultured according to standard operating procedures established by the NCI PDMR (https://pdmr.cancer.gov/sops/default.htm). All PDCs were thawed and cultured in Matrigel-coated flasks prepared with a working solution of 1X Ham's F-12 nutrient mix, without supplementation (Invitrogen, Waltham, MA, cat. 11765054), 100 U/mL penicillin-streptomycin (Invitrogen, cat. 15140122), and 2.5% Matrigel (Corning Inc., Corning, NY, cat. 354248) for the first three passages. The 354836-022-R-J1-PDC, 475296-252-R-J1-PDC, and 997726-040-R-J2-PDC lines were cultured in 6A media, which includes advanced DMEM/F-12 (Thermo Fisher Scientific, cat. 12634028), 10 mM HEPES (Thermo Fisher Scientific, cat. 15630080), 1X GlutaMAX supplement (Thermo Fisher Scientific, cat. 35050061), 0.1 mg/mL primocin (InvivoGen, San Diego, CA, cat. ant-pm-2), 10% defined fetal bovine serum, heat inactivated (HyClone Laboratories Inc., Logan, UT, cat. SH30070.03HI), 50% L-WRN conditioned media (ATCC, cat. CRL-3276), 1.25 mM N-Acetyl-L-cysteine (Sigma-Aldrich, cat. A9165), 10 mM nicotinamide (Sigma-Aldrich, cat. N0636), 1X B-27 supplement (Thermo Fisher Scientific, cat. 17504044), 1X N-2 supplement (Thermo Fisher Scientific, cat. 17502048), and 10 microM Y-27632 dihydrochloride (Tocris Bioscience, Bristol, United Kingdom, cat. 1254). The 624824-186-R-J2-PDC line was cultured in 6C/Colon 1B media, which includes all 6A media components plus 50 ng/mL human EGF recombinant protein (Thermo Fisher Scientific, cat. PHG0311). […]
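Note: spheroids exposed to compounds for seven days.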
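Throughout, for viability, T/C: 100% = DMSO vehicle control viability.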

For `CC(C)n1nc(-c2ccc3oc(N)nc3c2)c2c(N)ncnc21`, the viability, T/C (compound 0.000316 µM) was 99% [middle of 4 runs], the viability, T/C (compound 0.001 µM) was 98.2% [middle of 4 runs] and the viability, T/C (compound 0.00316 µM) was 101% [middle of 4 runs]. For the same compound, the viability, T/C (compound 0.01 µM) was 86.7% [middle of 4 runs], the viability, T/C (compound 0.0316 µM) was 77.7% [middle of 4 runs] and the viability, T/C (compound 0.1 µM) was 38.6% (2×) and 36.7% and 38.7%. For the same compound, the IC50 (curve of compound) was 71.3 nM [middle of 4 runs].

For `CC(Nc1ncnc2nc[nH]c12)c1cc2cccc(Cl)c2c(=O)n1-c1ccccc1` (stereo unspecified), the viability, T/C (compound 0.0316 µM) was 100% [middle of 8 runs], the viability, T/C (compound 0.1 µM) was 95.1% [middle of 8 runs] and the viability, T/C (compound 0.316 µM) was 99.5% [middle of 8 runs]. The viability, T/C (compound 1 µM) was 97.6% [middle of 8 runs], the viability, T/C (compound 3.16 µM) was 94.7% [middle of 8 runs] and the viability, T/C (compound 10 µM) was 89.6% [middle of 8 runs]. The IC50 (compound alone, run of 04/25/2023) was greater than 10 µM.

Compound `C#Cc1c(F)ccc2cc(O)cc(-c3ncc4c(N5CC6CCC(C5)N6)nc(OCC56CCCN5CC(F)C6)nc4c3F)c12` (stereo unspecified) + COc1c(OCCCN2CCOCC2)ccc2c3n(c(=NC(=O)c4cnc(N)nc4)nc12)CCN3 has an IC50 (curve of first compound, second compound 0.00316 µM) greater than 10 µM, an IC50 (curve of first compound, second compound 0.01 µM) greater than 10 µM and an IC50 (curve of first compound, second compound 0.0316 µM) greater than 10 µM. For the same compound, the IC50 (curve of first compound, second compound 0.1 µM) was less than 0.0316 µM, the IC50 (curve of first compound, second compound 0.316 µM) was less than 0.0316 µM and the IC50 (curve of first compound, second compound 1 µM) was less than 0.0316 µM. For the same compound, the viability, T/C (second compound 0.00316 µM, first compound 0.0316 µM) was 107%, the viability, T/C (second compound 0.00316 µM, first compound 0.1 µM) was 103% and the viability, T/C (second compound 0.00316 µM, first compound 0.316 µM) was 107%. The viability, T/C (second compound 0.00316 µM, first compound 1 µM) was 110%, the viability, T/C (second compound 0.00316 µM, first compound 3.16 µM) was 108% and the viability, T/C (second compound 0.00316 µM, first compound 10 µM) was 100%. It also gave a viability, T/C (second compound 0.01 µM, first compound 0.0316 µM) of 93.6%, a viability, T/C (second compound 0.01 µM, first compound 0.1 µM) of 106% and a viability, T/C (second compound 0.01 µM, first compound 0.316 µM) of 105%. The viability, T/C (second compound 0.01 µM, first compound 1 µM) was 108%, the viability, T/C (second compound 0.01 µM, first compound 3.16 µM) was 98.7% and the viability, T/C (second compound 0.01 µM, first compound 10 µM) was 102%. It also gave a viability, T/C (second compound 0.0316 µM, first compound 0.0316 µM) of 70.2%, a viability, T/C (second compound 0.0316 µM, first compound 0.1 µM) of 83.3% and a viability, T/C (second compound 0.0316 µM, first compound 0.316 µM) of 96.8%. It also gave a viability, T/C (second compound 0.0316 µM, first compound 1 µM) of 78.7%, a viability, T/C (second compound 0.0316 µM, first compound 3.16 µM) of 72.7% and a viability, T/C (second compound 0.0316 µM, first compound 10 µM) of 77.2%. For the same compound, the viability, T/C (second compound 0.1 µM, first compound 0.0316 µM) was 40.1%, the viability, T/C (second compound 0.1 µM, first compound 0.1 µM) was 47.7% and the viability, T/C (second compound 0.1 µM, first compound 0.316 µM) was 45.1%. For the same compound, the viability, T/C (second compound 0.1 µM, first compound 1 µM) was 42.1%, the viability, T/C (second compound 0.1 µM, first compound 3.16 µM) was 39.5% and the viability, T/C (second compound 0.1 µM, first compound 10 µM) was 32.6%. The viability, T/C (second compound 0.316 µM, first compound 0.0316 µM) was 17.8%, the viability, T/C (second compound 0.316 µM, first compound 0.1 µM) was 18.2% and the viability, T/C (second compound 0.316 µM, first compound 0.316 µM) was 16.7%. The viability, T/C (second compound 0.316 µM, first compound 1 µM) was 13.4%, the viability, T/C (second compound 0.316 µM, first compound 3.16 µM) was 15.3% and the viability, T/C (second compound 0.316 µM, first compound 10 µM) was 6.87%. The viability, T/C (second compound 1 µM, first compound 0.0316 µM) was 9.9%, the viability, T/C (second compound 1 µM, first compound 0.1 µM) was 13.1% and the viability, T/C (second compound 1 µM, first compound 0.316 µM) was 12.1%. The viability, T/C (second compound 1 µM, first compound 1 µM) was 11.2%, the viability, T/C (second compound 1 µM, first compound 3.16 µM) was 8.79% and the viability, T/C (second compound 1 µM, first compound 10 µM) was 4.83%.
